Results as given in patent US4256750A, “Pharmaceutical compositions” (Wulfing; Johann A., priority 1979, dated 1981).
Values joined by “and” are separate entries in the source; they are usually repeats but may differ in a detail not shown here. Equal entries are not always repeated.

Experiments:
[1] = tested on: ischaemic skeletal muscle (m. gastrocnemius); assay: pO2 (oxygen tension) measurement in ischaemic skeletal muscle of anaesthetized cats; format: in vivo, cat; conditions: for effect of Compound A, ΔpO2: 125 μg/kg i.v.; for effect of Compound A, ΔpO2 / effect of Compound B, ΔpO2: individual cats; for change of pO2 of ischaemic skeletal muscle (in words): B and C at 5-32 mg/kg compared with Compound A at 125 μg/kg; for effect of Compound B, ΔpO2: 5 mg/kg i.v.
Description: pO2 was measured polarographically using Pt-needle electrodes (modified according to Baumgartl and Lubbers, 1973). The reference electrode, an Ag/A/AgCl system was sputtered on the glass mantle of the cathode, or it was a separate electrode. The cathode was coated with a polystyrol and a collodium membrane. A constant voltage supply provided a polarizing voltage between 600 and 800 mV. The reducing current was measured by a nano-ampere amplifying meter. The cathode was inserted in the tissue by means of a motor-driven micromanipulator.
A pO2 -electrode was inserted in the muscle tissue (m. gastrocnemius) of both hindlegs of an anaesthetized cat. After recording the pO2 of the normal perfused muscle, the blood flow to one measuring site was restricted by ligating the femoral artery. The pO2 dropped steeply and the tissue became ischaemic. After a few minutes, the pO2 increased and then decreased again. The values were constant after 30 to 60 min. After having reached a constant level of pO2, the vehicle was given, followed by the test substance.
The mean value and the standard deviation were calculated, in order to check the significance of the effect.

[2] = tested on: ischaemic skeletal muscle (calf muscles); assay: Skeletal muscle contractility in anaesthetized cats with restricted femoral blood flow; format: in vivo, cat; conditions: for change of contractility of ischaemic skeletal muscle (in words) / contractility (% initial value): cat; for change of contractility of ischaemic skeletal muscle (in words): B and C at 5-32 mg/kg compared with Compound A at 125 μg/kg; for contractility (% initial value): ischaemic muscle
Description: (§1) Cats of either sex were anaesthetized with urethane/chloralose (120/60 mg/kg i.p.). In the course of the experiments, pentobarbital was injected intravenously (V. antebrachii ceph.) via a plastic tube. The intraduodenal (i.d.) application of compound was conducted by means of a plastic catheter, which was inserted into the duodenum.
(§2) Cats of either sex were anaesthetized as for pO2 measurement. After dissection of the skin of the calf muscles, the sciatic nerve was cut about 3 cm proximal to the knee. The tendon of the calf muscles was cut and connected with an isometric force transducer (SWEMA, SG 3). In order to maintain constant differences and a resting tension of 100 p, the hind limb was fixed at the tibia by means of a clamp. Direct stimulation of the muscles consisted of square wave pulses of 4 msec duration at a frequency of 2 Hz and at a voltage of 50 V. In order to keep the muscles wet and at a normal temperature, the muscles were continuously superfused by means of a NaCl-solution (0.9%, 38° C.). Femoral blood flow was restricted by a graded occlusion of the artery leading to a reduction of contractility by ca. 30%. After having reached a constant level of the contraction force, the vehicle (NaCl and Methocel, respectively) was injected, followed by the test substance.

[3] = Blood pressure (BP) change in the cat contractility experiment (Table 3); format: in vivo
Description: as §1, §2

[4] = Solubility in water / aqueous media; format: physicochemical
[5] = in vivo; cited from earlier work
[6] = control (hind limb not ligated)
[7] = contractility and pO2 of ischaemic skeletal muscle, cat
[8] = i.d., Compound A 125 μg/kg, Compound B 32 mg/kg, Compound C 12.5 mg/kg
[9] = i.v., Compound A 50 μg/kg, Compound B 5 mg/kg

CCCCn1c(=O)c2c(ncn2CC(C)=O)n(CCCC)c1=O [Compound A, 1,3-di-n-butyl-7-(2-oxopropyl)xanthine]
effect of Compound A, ΔpO2 [1, 6]: 13.2 Torr and 3.8 Torr and 3.5 Torr and 19.3 Torr and 3.4 Torr
effect of Compound A, ΔpO2 ([1]; hind limb art. ligation): 6.2 Torr and 7.3 Torr and 5.2 Torr and 27.1 Torr and 11.2 Torr and 5.6 Torr
change of pO2 of ischaemic skeletal muscle (in words) ([1]; cat): distinct increase
high activity in the μg-range (dose range) [1, 7]: 50 to 125 µg/kg
Δ muscle contract., t (time interval to reach initial values) ([2]; 50 μg/kg i.v.): > 60 min
Δ muscle contract. ([2]; 50 μg/kg i.v., mean, n 4): +36.0 percentage of initial values
Δ muscle contract., t (time interval to reach initial values) ([2]; 125 μg/kg i.v.): > 60 min
Δ muscle contract. ([2]; 125 μg/kg i.v., mean): +19.0 percentage of initial values
Δ muscle contract. ([2]; 313 μg/kg i.v., n = 1): +25.0 percentage of initial values
Δ muscle contract., t (time interval to reach initial values) ([2]; 313 μg/kg i.v., n = 1): > 60 min
change of contractility of ischaemic skeletal muscle (in words) [2]: distinct increase
contractility (% initial value) [2, 8]: 32 % initial value
contractility (% initial value) [2, 9]: 36 % initial value
Δ initial phase BP decrease, t (time interval to reach initial values) ([3]; 50 μg/kg i.v.): 2 min
Δ second phase BP increase, t (time interval to reach initial values) ([3]; 50 μg/kg i.v.): 33 min
Δ initial phase BP decrease ([3]; 50 μg/kg i.v., mean, n 4): -14.0 percentage of initial values
Δ second phase BP increase ([3]; 50 μg/kg i.v., mean, n 4): +17.0 percentage of initial values
Δ initial phase BP decrease, t (time interval to reach initial values) ([3]; 125 μg/kg i.v.): 3 min
Δ second phase BP increase, t (time interval to reach initial values) ([3]; 125 μg/kg i.v.): 32 min
Δ initial phase BP decrease ([3]; 125 μg/kg i.v., mean): -23.1 percentage of initial values
Δ second phase BP increase ([3]; 125 μg/kg i.v., mean): +10.8 percentage of initial values
Δ initial phase BP decrease ([3]; 313 μg/kg i.v., n = 1): -25.0 percentage of initial values
Δ initial phase BP decrease, t (time interval to reach initial values) ([3]; 313 μg/kg i.v., n = 1): 2 min
Δ second phase BP increase ([3]; 313 μg/kg i.v., n = 1): +15.0 percentage of initial values
Δ second phase BP increase, t (time interval to reach initial values) ([3]; 313 μg/kg i.v., n = 1): 6 min
solubility in aqueous media (in words) ([4]; aqueous media): only sparingly soluble

CC(=O)CCCCn1c(=O)c2c(ncn2C)n(C)c1=O [Compound B, pentoxyphylline, reference compound]
effect of Compound B, ΔpO2 [1, 6]: 0.3 Torr and 1.02 Torr and -2.4 Torr and 14.3 Torr and -0.9 Torr
effect of Compound B, ΔpO2 ([1]; hind limb art. ligation): -0.16 Torr and -1.5 Torr
Mean effect of Compound B compared to Compound A ([1]; B 5 mg/kg vs A 125 μg/kg, i.v.): 21.3%
change of pO2 of ischaemic skeletal muscle (in words) ([1]; cat): less pronounced
change of contractility of ischaemic skeletal muscle (in words) [2]: less pronounced
contractility (% initial value) [2, 8]: 23 % initial value
contractility (% initial value) [2, 9]: 9 % initial value
oral toxicity (in words) [5]: low oral toxicity

CCCCn1c(=O)c2c(ncn2CCC(C)=O)n(CCCC)c1=O [Compound C, 1,3-di-n-butyl-7-(3-oxobutyl)xanthine, reference compound]
change of pO2 of ischaemic skeletal muscle (in words) ([1]; cat): less pronounced
dose range of activity [1, 7]: 5 to 32 mg/kg
change of contractility of ischaemic skeletal muscle (in words) [2]: less pronounced
contractility (% initial value) [2, 8]: 22 % initial value
water solubility (in words) ([4]; water, reason for not testing i.v.): low water solubility
